The structures appear in SMILES notation. Structures can show the parent of a compound that is named as a salt. Where only a bound is given, the exact number is not on record here.

The first assay concerns LP-1 cell line. Description: Cell-based pERK ELISA method, LP-1 cells. Particulars: Homo sapiens, LP-1, read-out: IC50 less than 1 μM or at least 50% inhibition at a concentration of 1 μM, LP-1 pERK ELISA.
Method: LP-1 or JIM-1 multiple myeloma cells were seeded in 96 well plates at 1×10^6 cells/ml in 200 ul per well in serum free media. […] Cells were incubated for 16 h at 37° C. prior to the addition of a test compound for 30 minutes. Test compounds were administered at a 0.1% final DMSO concentration. […] ELISA plates and standards were prepared according o the standard DuoSet protocols and the relative amounts of pERK to total ERK in each sample calculated according to the standard curve.
In particular, compounds of the invention were tested against the LP-1 cell line (DSMZ no.: ACC 41) derived from human multiple myeloma.
For the compound `CS(=O)(=O)c1cccc(-c2ccn3c(-c4cccc(NC(=O)NCC(F)(F)F)c4)cnc3c2)c1` [Example 251, 1-{3-[7-(3-Methane-sulfonyl-phenyl)-imidazo[1,2-a]pyridin-3-yl]-phenyl}-3-(2,2,2-trifluoro-ethyl)-urea formate], the IC50 is under 1 µM. Regarding `O=C(NCCF)Nc1cccc(-c2cnn3cc(-c4ccc(F)cc4)cnc23)c1` [Example 140, 1-(2-Fluoro-ethyl)-3-{3-[6-(4-fluoro-phenyl)-pyrazolo[1,5-a]pyrimidin-3-yl]-phenyl}-urea], the IC50 is under 1 µM. Take `Cc1ccc(-c2cnc3c(-c4cccc(NC(=O)NCC(F)(F)F)c4)cnn3c2)o1` [Example 180]: the IC50 was under 1 µM. `CCCn1cc(-c2ccn3c(-c4cccc(NC(=O)NCC(F)(F)F)c4)cnc3c2)cn1` [Example 256, 1-{3-[7-(1-Propyl-1H-pyrazol-4-yl)-imidazo[1,2-a]pyridin-3-yl]-phenyl}-3-(2,2,2-trifluoro-ethyl)-urea formate]: the IC50 is under 1 µM. Consider `CC(=O)Nc1cccc(-c2cnc3cc(-c4ccc(N5CCOCC5)cc4)ccn23)c1` [Example 5, N-{3-[7-(4-Morpholin-4-yl-phenyl)-imidazo[1,2-a]pyridin-3-yl]-phenyl}-acetamide], for which the IC50 is under 1 µM. Turning to `NCC(=O)Nc1cccc(-c2cnc3cc(-c4ccc(F)cc4)ccn23)c1` [Example 67, 2-Amino-N-{3-[7-(4-fluoro-phenyl)-imidazo[1,2-a]pyridin-3-yl]-phenyl}-acetamide formate salt], the IC50 is under 1 µM. The same measure, in the same setting: to `CS(=O)(=O)NCc1cccc(-c2ccn3c(-c4cccc(NC(=O)NCC(F)(F)F)c4)cnc3c2)c1` [Example 239, N-[3-(3-{3-[3-(2,2,2-Trifluoro-ethyl)-ureido]-phenyl}-imidazo[1,2-a]pyridin-7-yl)-benzyl]-methane-sulfonamide] belongs under 1 µM; to `O=C(NCC(F)(F)F)Nc1cccc(-c2cnc3cc(-c4ccc(=O)n(CCCN5CCCCC5)c4)ccn23)c1` [Example 208, 1-(3-{7-[6-Oxo-1-(3-piperidin-1-yl-propyl)-1,6-dihydro-pyridin-3-yl]-imidazo[1,2-a]pyridin-3-yl}-phenyl)-3-(2,2,2-trifluoro-ethyl)-urea Hydrochloride], under 1 µM. Turning to `CCNC(=O)Nc1cccc(-c2cnc3cc(-c4ccc(=O)n(C)c4)ccn23)c1` [Example 95, 1-Ethyl-3-{3-[7-(1-methyl-6-oxo-1,6-dihydro-pyridin-3-yl)-imidazo[1,2-a]pyridin-3-yl]-phenyl}-urea], the IC50 was under 1 µM.

For the compound `Cc1ccc(-c2ccn3c(-c4cccc(NC(=O)NCC(F)(F)F)c4)cnc3c2)s1` [Example 270, 1-{3-[7-(5-Methyl-thiophen-2-yl)-imidazo[1,2-a]pyridin-3-yl]-phenyl}-3-(2,2,2-trifluoro-ethyl)-urea formate], the IC50 was under 1 µM. With `CCNC(=O)Nc1cc(-c2cnn3cc(-c4ccc(F)cc4)cnc23)ccn1` [Example 204, 1-Ethyl-3-{4-[6-(4-fluoro-phenyl)-pyrazolo[1,5-a]pyrimidin-3-yl]-pyridin-2-yl}-urea], the IC50 was under 1 µM. Regarding `O=C(NCC(F)(F)F)Nc1cccc(-c2cnn3cc(-c4cccc(C(=O)N5CCOCC5)c4)cnc23)c1` [Example 165, 1-(3-{6-[3-(Morpholine-4-carbonyl)-phenyl]-pyrazolo[1,5-a]pyrimidin-3-yl}-phenyl)-3-(2,2,2-trifluoro-ethyl)-urea], the IC50 was under 1 µM. As for `O=C(NCC(F)(F)F)Nc1cc(CO)cc(-c2cnc3cc(-c4ccc(F)cc4)ccn23)c1` [Example 258, 1-{3-[7-(4-Fluoro-phenyl)-imidazo[1,2-a]pyridin-3-yl]-5-hydroxymethyl-phenyl}-3-(2,2,2-trifluoro-ethyl)-urea], the IC50 is under 1 µM.

On to `CCNC(=O)Nc1cccc(-c2cnc3cc(-c4ccsc4)ccn23)c1` [Example 115, 1-Ethyl-3-[3-(7-thiophen-3-yl-imidazo[1,2-a]pyridine-3-yl)-phenyl]-urea formate salt], for which the IC50 was under 1 µM. In the case of `O=C(NCC(F)(F)F)Nc1cccc(-c2cnc3cc(-c4cc(F)cc(F)c4)ccn23)c1` [Example 254, 1-{3-[7-(3,5-Difluoro-phenyl)-imidazo[1,2-a]pyridin-3-yl]-phenyl}-3-(2,2,2-trifluoro-ethyl)-urea], the IC50 is under 1 µM. On to `Cn1cc(-c2cnc3c(-c4cccc(NC(=O)NCC(F)(F)F)c4)cnn3c2)cn1` [Example 127, 1-{3-[6-(1-Methyl-1H-pyrazol-4-yl)-pyrazolo[1,5-a]pyrimidin-3-yl]-phenyl}-3-(2,2,2-trifluoro-ethyl)-urea], for which the IC50 was under 1 µM. For the compound `Cn1cc(-c2cnc3c(-c4cccc(NC(=O)NCC(F)(F)F)c4)cnn3c2)ccc1=O` [Example 158, 1-{3-[6-(1-Methyl-6-oxo-1,6-dihydro-pyridin-3-yl)-pyrazolo[1,5-a]pyrimidin-3-yl]-phenyl}-3-(2,2,2-trifluoro-ethyl)-urea], the IC50 is under 1 µM.

Consider `CN1CCN(c2ccc(-c3ccn4c(-c5cccc(NC(=O)NCC(F)(F)F)c5)cnc4c3)cc2)CC1` [Example 245, 1-(3-{7-[4-(4-Methyl-piperazin-1-yl)-phenyl]-imidazo[1,2-a]pyridin-3-yl}-phenyl)-3-(2,2,2-trifluoro-ethyl)-urea Acetic acid], for which the IC50 was under 1 µM. `O=C(NCC(F)(F)F)Nc1cccc(-c2cnc3cc(-c4ccc(F)c(Cl)c4)ccn23)c1` [Example 284, 1-{3-[7-(3-Chloro-4-fluoro-phenyl)-imidazo[1,2-a]pyridin-3-yl]-phenyl}-3-(2,2,2-trifluoro-ethyl)-urea]: the IC50 is under 1 µM. In the case of `COc1ncc(-c2cnc3c(-c4cccc(NC(=O)NCC(F)(F)F)c4)cnn3c2)cn1` [Example 151, 1-{3-[6-(2-Methoxy-pyrimidin-5-yl)-pyrazolo[1,5-a]pyrimidin-3-yl]-phenyl}-3-(2,2,2-trifluoro-ethyl)-urea], the IC50 was under 1 µM. Consider `CCNC(=O)Nc1cccc(-c2cnc3cc(-c4cccc(C(=O)N5CCN(C)CC5)c4)ccn23)c1` [Example 79, 1-Ethyl-3-(3-{7-[3-(4-methyl-piperazine-1-carbonyl)-phenyl]-imidazo[1,2-a]pyridin-3-yl}-phenyl)-urea], for which the IC50 was under 1 µM. Regarding `CCNC(=O)Nc1cccc(-n2cnc3cc(-c4ccc(F)cc4)cnc32)c1` [Example 169, 1-Ethyl-3-{3-[6-(4-fluoro-phenyl)-imidazo[4,5-b]pyridin-3-yl]-phenyl}-urea], the IC50 was under 1 µM. Consider `N#Cc1cc(NC(=O)NCC(F)(F)F)cc(-c2cnc3cc(-c4ccc(F)cc4)ccn23)c1` [Example 214, 1-{3-Cyano-5-[7-(4-fluoro-phenyl)-imidazo[1,2-a]pyridin-3-yl]-phenyl}-3-(2,2,2-trifluoro-ethyl)-urea], for which the IC50 is under 1 µM.

On to `NS(=O)(=O)c1cccc(-c2ccn3c(-c4cccc(NC(=O)NCC(F)(F)F)c4)cnc3c2)c1` [Example 249, 3-(3-{3-[3-(2,2,2-Trifluoro-ethyl)-ureido]-phenyl}-imidazo[1,2-a]pyridin-7-yl)-benzene-sulfonamide formate], for which the IC50 is under 1 µM. Turning to `O=C(NCC(F)(F)F)Nc1cccc(-c2cnc3cc(-c4cccc(NC5CCOCC5)c4)ccn23)c1` [Example 244, 1-(3-{7-[3-(Tetrahydro-pyran-4-ylamino)-phenyl]-imidazo[1,2-a]pyridin-3-yl}-phenyl)-3-(2,2,2-trifluoro-ethyl)-urea], the IC50 is under 1 µM. The same measure, in the same setting: to `O=C(NCC(F)(F)F)Nc1cccc(-c2cnn3cc(-c4ccc(F)cc4)cnc23)c1` [Example 123, 1-{3-[6-(4-Fluoro-phenyl)-pyrazolo[1,5-a]pyrimidin-3-yl]-phenyl}-3-(2,2,2-trifluoro-ethyl)-urea] belongs under 1 µM.

For `CCCC(=O)Nc1cccc(-c2cnc3cc(-c4ccc(F)cc4)ccn23)c1` [Example 66, N-{3-[7-(4-Fluoro-phenyl)-imidazo[1,2-a]pyridin-3-yl]-phenyl}-butyramide], the IC50 was under 1 µM. Turning to `O=C(NCC(F)(F)F)Nc1ccc(F)c(-c2cnc3cc(Cl)ccn23)c1` [Example 252, 1-[3-(7-Chloro-imidazo[1,2-a]pyridin-3-yl)-4-fluoro-phenyl]-3-(2,2,2-trifluoro-ethyl)-urea], the IC50 was under 1 µM. On the same count and under the same terms, the value for `COCCNC(=O)c1cccc(-c2ccn3c(-c4cccc(NC(=O)NCC(F)(F)F)c4)cnc3c2)c1` [Example 263, N-(2-Methoxy-ethyl)-3-(3-{3-[3-(2,2,2-trifluoro-ethyl)-ureido]-phenyl}-imidazo[1,2-a]pyridin-7-yl)-benzamide] was under 1 µM; that for `O=C(NCC(F)(F)F)Nc1cccc(-c2cnc3cc(-c4cccc(C(=O)N5CCCNCC5)c4)ccn23)c1` [Example 283, 1-(3-{7-[3-([1,4] Diazepane-1-carbonyl)-phenyl]-imidazo[1,2-a]pyridin-3-yl}-phenyl)-3-(2,2,2-trifluoro-ethyl)-urea Hydrochloride] was under 1 µM; that for `CCNC(=O)Nc1cccc(-c2cnn3cc(-c4ccc(F)cc4)cnc23)c1` [Example 111, 1-Ethyl-3-{3-[6-(4-fluoro-phenyl)-pyrazolo[1,5-a]pyrimidin-3-yl]-phenyl}-urea] was under 1 µM.

The same assay, now with this note: Homo sapiens, LP-1, read-out: LP-1 pERK ELISA (μM).
As to `CC#Cc1ccn2c(-c3cccc(NC(=O)NCC(F)(F)F)c3)cnc2c1` [Example 396, 1-[3-(7-Prop-1-ynyl-imidazo[1,2-a]pyridin-3-yl)-phenyl]-3-(2,2,2-trifluoro-ethyl)-urea], the IC50 turned out to be 0.065 µM. With `O=C(NCC(F)(F)F)Nc1cccc(-c2cnc3cc(-c4ccc(F)cc4)ccn23)c1` [Example 59, 1-{3-[7-(4-fluoro-phenyl)-imidazo[1,2-a]pyridin-3-yl]-phenyl}-3-(2,2,2-trifluoro-ethyl)-urea], the IC50 was 0.0021 µM.

Consider `Cc1nnc(-c2ccn3c(-c4cccc(NC(=O)NCC(F)(F)F)c4)cnc3c2)o1` [Example 329, 1-{3-[7-(5-Methyl-[1,3,4]oxadiazol-2-yl)-imidazo[1,2-a]pyridin-3-yl]-phenyl}-3-(2,2,2-trifluoro-ethyl)-urea], for which the IC50 came out at 0.143 µM.

The record behind these values is US8895745B2, “Bicyclic heterocyclic compounds as FGFR inhibitors” (Astex Therapeutics Limited, priority 2006, dated 2014).
